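Briefly, cells in 96-well plates were exposed to five compound concentrations for 48 h, and endpoints were estimated by linear interpolation. The concentration for 50% growth inhibition is given as GI50. At the TGI there is no net growth.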
Legend:
Test in all cases: NCI-60 cell line screen, 48 h
[1] = system: SK-MEL-2 melanoma
[2] = system: RPMI-8226 leukemia
[3] = system: COLO 205 colon
[4] = system: A549 NSCLC
[5] = system: SR leukemia
[6] = system: KM12 colon
[7] = system: HL-60(TB) leukemia
[8] = system: NCI-H522 lung
[9] = system: PC-3 prostate
[10] = system: MALME-3M melanoma
[11] = system: NCI/ADR-RES ovarian
[12] = system: HT29 colon
[13] = system: MDA-MB-435
[14] = system: BT-549 breast
[15] = system: OVCAR-5 ovarian
[16] = system: SF-268 CNS
[17] = system: ACHN renal
[18] = system: HOP-62 NSCLC
[19] = system: UACC-257 melanoma
[20] = system: 786-0 renal
[21] = system: DU-145 prostate
[22] = system: SK-MEL-5 melanoma
[23] = system: HCT-15 colon
[24] = system: OVCAR-8 ovarian
[25] = system: SF-295 CNS
[26] = system: CAKI-1 renal
[27] = system: IGROV1 ovarian
[28] = system: CCRF-CEM leukemia
[29] = system: HOP-92 NSCLC
[30] = system: SK-MEL-28 melanoma
[31] = system: HCC-2998 colon
[32] = system: K-562 leukemia
[33] = system: HCT-116 colon
[34] = system: SN12C renal
[35] = system: NCI-H226 lung
[36] = system: NCI-H460 lung
[37] = system: TK-10 renal
[38] = system: MOLT-4 leukemia
[39] = system: MDA-MB-231 breast
[40] = system: MCF7 breast
[41] = system: M14 melanoma
[42] = system: SNB-75 CNS
[43] = system: OVCAR-4 ovarian
[44] = system: U251 CNS
[45] = system: SW-620 colon
[46] = system: NCI-H23 lung
[47] = system: SF-539 CNS
[48] = system: SNB-19 CNS
[49] = system: LOX IMVI melanoma
[50] = system: EKVX NSCLC
[51] = system: UACC-62 melanoma
[52] = system: RXF 393 renal
[53] = system: A498 renal
[54] = system: HS 578T breast
[55] = system: UO-31 renal
[56] = system: SK-OV-3 ovarian
[57] = system: OVCAR-3 ovarian

## Cc1c(CN)c(C)c(CN)c(C)c1CN
[1]
  TGI: > 100000 nM
[2]
  TGI: > 100000 nM
[3]
  TGI: > 100000 nM
[4]
  TGI: > 100000 nM
[5]
  TGI: > 100000 nM
[6]
  TGI: > 100000 nM
[7]
  TGI: > 100000 nM
[8]
  TGI: > 100000 nM
[9]
  TGI: > 100000 nM
[10]
  TGI: > 100000 nM
[11]
  TGI: > 100000 nM
[12]
  TGI: > 100000 nM
[13]
  TGI: > 100000 nM
[14]
  TGI: > 100000 nM
[15]
  TGI: > 100000 nM
[16]
  TGI: > 100000 nM
[17]
  TGI: > 100000 nM
[18]
  TGI: > 100000 nM
[19]
  TGI: > 100000 nM
[20]
  TGI: > 100000 nM
[21]
  TGI: > 100000 nM
[22]
  TGI: > 100000 nM
[23]
  TGI: > 100000 nM
[24]
  TGI: > 100000 nM
[25]
  TGI: > 100000 nM
[26]
  TGI: > 100000 nM
[27]
  TGI: > 100000 nM
[28]
  TGI: > 100000 nM
[29]
  TGI: > 100000 nM
[30]
  TGI: > 100000 nM
[31]
  TGI: > 100000 nM
[32]
  TGI: > 100000 nM
[33]
  TGI: > 100000 nM
[34]
  TGI: > 100000 nM
[35]
  TGI: > 100000 nM
[36]
  TGI: > 100000 nM
[37]
  TGI: > 100000 nM
[38]
  TGI: > 100000 nM
[39]
  TGI: > 100000 nM
[40]
  TGI: > 100000 nM
[41]
  TGI: > 100000 nM
[42]
  TGI: > 100000 nM
[43]
  TGI: > 100000 nM
[44]
  TGI: > 100000 nM
[45]
  TGI: > 100000 nM
[46]
  TGI: 94500 nM
[47]
  TGI: > 100000 nM
[48]
  TGI: > 100000 nM
[49]
  TGI: > 100000 nM
[50]
  TGI: > 100000 nM

## Nc1c(C(=O)Nc2ccccc2)sc2nc3c(cc12)C(O)CCC3 (stereo not drawn)
[2]
  GI50: 372 nM
  TGI: > 100000 nM
[3]
  GI50: 295 nM
  TGI: 2630 nM
[51]
  GI50: 444 nM
  TGI: > 100000 nM
[4]
  GI50: 406 nM
  TGI: > 100000 nM
[5]
  GI50: 168 nM
  TGI: > 100000 nM
[6]
  GI50: 440 nM
  TGI: > 100000 nM
[7]
  GI50: 232 nM
  TGI: 706 nM
[8]
  GI50: 280 nM
[9]
  GI50: 325 nM
  TGI: > 100000 nM
[10]
  GI50: 256 nM
  TGI: > 100000 nM
[12]
  GI50: 323 nM
[14]
  GI50: 1240 nM
  TGI: > 100000 nM
[16]
  GI50: 700 nM
  TGI: > 100000 nM
[17]
  GI50: 981 nM
  TGI: > 100000 nM
[18]
  GI50: 455 nM
  TGI: > 100000 nM
[19]
  GI50: > 100000 nM
  TGI: > 100000 nM
[20]
  GI50: 623 nM
  TGI: > 100000 nM
[21]
  GI50: 355 nM
  TGI: > 100000 nM
[22]
  GI50: 407 nM
  TGI: 23900 nM
[52]
  GI50: 349 nM
  TGI: > 100000 nM
[23]
  GI50: 336 nM
  TGI: > 100000 nM
[24]
  GI50: 471 nM
  TGI: > 100000 nM
[25]
  GI50: 297 nM
  TGI: > 100000 nM
[26]
  GI50: 349 nM
  TGI: > 100000 nM
[27]
  GI50: 650 nM
  TGI: > 100000 nM
[28]
  GI50: 323 nM
  TGI: > 100000 nM
[29]
  GI50: 264 nM
  TGI: > 100000 nM
[53]
  GI50: 273 nM
  TGI: > 100000 nM
[31]
  GI50: 1070 nM
  TGI: > 79300 nM
[32]
  GI50: 196 nM
  TGI: > 100000 nM
[33]
  GI50: 488 nM
  TGI: > 100000 nM
[54]
  GI50: 362 nM
  TGI: > 100000 nM
[34]
  GI50: 559 nM
  TGI: > 100000 nM
[35]
  GI50: 1270 nM
  TGI: > 100000 nM
[55]
  GI50: 689 nM
  TGI: > 100000 nM
[36]
  GI50: 355 nM
  TGI: > 100000 nM
[37]
  GI50: > 100000 nM
  TGI: > 100000 nM
[38]
  GI50: 491 nM
  TGI: > 100000 nM
[39]
  GI50: 946 nM
  TGI: > 100000 nM
[40]
  GI50: 241 nM
  TGI: > 100000 nM
[41]
  GI50: 281 nM
  TGI: > 100000 nM
[42]
  GI50: 278 nM
  TGI: > 100000 nM
[43]
  GI50: 3660 nM
  TGI: > 100000 nM
[56]
  GI50: 439 nM
  TGI: > 100000 nM
[44]
  GI50: 362 nM
  TGI: > 100000 nM
[45]
  GI50: 371 nM
  TGI: > 100000 nM
[46]
  GI50: 665 nM
  TGI: > 100000 nM
[47]
  GI50: 225 nM
  TGI: 604 nM
[57]
  GI50: 344 nM
  TGI: > 100000 nM
[48]
  GI50: 577 nM
  TGI: > 100000 nM
[49]
  GI50: 638 nM
  TGI: > 100000 nM

## O=C1N=C(c2c(-c3[nH]c(=O)c4ccc(Br)cc4c3O)c(O)c3ccccc3c2O)C(=O)c2cc(Br)ccc21
[1]
  TGI: > 4940 nM
[2]
  GI50: > 3430 nM
  TGI: > 16700 nM
[3]
  GI50: > 16700 nM
  TGI: > 16700 nM
[51]
  TGI: > 16700 nM
[4]
  GI50: 577 nM
  TGI: > 16700 nM
[5]
  GI50: 944 nM
  TGI: > 16700 nM
[6]
  GI50: 566 nM
  TGI: 1970 nM
[7]
  GI50: > 16700 nM
  TGI: > 16700 nM
[8]
  GI50: 359 nM
  TGI: 1110 nM
[10]
  GI50: 367 nM
  TGI: 770 nM
[11]
  GI50: 363 nM
  TGI: 1080 nM
[12]
  GI50: > 8040 nM
  TGI: > 16700 nM
[13]
  GI50: 1030 nM
  TGI: 4740 nM
[14]
  GI50: 422 nM
  TGI: 1350 nM
[15]
  GI50: > 8370 nM
  TGI: > 16700 nM
[17]
  GI50: 333 nM
  TGI: 908 nM
[18]
  GI50: 292 nM
  TGI: 660 nM
[19]
  GI50: 480 nM
  TGI: 1110 nM
[20]
  GI50: 360 nM
  TGI: 805 nM
[21]
  GI50: 427 nM
  TGI: 1110 nM
[22]
  GI50: 479 nM
  TGI: 1470 nM
[52]
  GI50: 296 nM
  TGI: 646 nM
[23]
  GI50: 306 nM
  TGI: 672 nM
[24]
  GI50: 526 nM
  TGI: > 16700 nM
[26]
  GI50: 379 nM
  TGI: 1030 nM
[27]
  GI50: 493 nM
  TGI: 1410 nM
[28]
  GI50: 930 nM
  TGI: > 16700 nM
[29]
  GI50: > 16700 nM
  TGI: > 16700 nM
[30]
  GI50: 375 nM
  TGI: 926 nM
[53]
  GI50: 4.4 nM
  TGI: > 16700 nM
[31]
  GI50: 347 nM
  TGI: 832 nM
[32]
  GI50: 593 nM
  TGI: > 16700 nM
[33]
  GI50: 378 nM
  TGI: 1000 nM
[34]
  GI50: 359 nM
  TGI: 790 nM
[35]
  GI50: 335 nM
  TGI: 937 nM
[55]
  GI50: 287 nM
  TGI: 638 nM
[36]
  GI50: 417 nM
  TGI: 1020 nM
[37]
  GI50: 484 nM
  TGI: 1180 nM
[38]
  GI50: > 3710 nM
  TGI: > 16700 nM
[39]
  GI50: 585 nM
  TGI: > 16700 nM
[40]
  GI50: 335 nM
  TGI: 1210 nM
[41]
  GI50: 523 nM
  TGI: 1600 nM
[42]
  GI50: 261 nM
  TGI: 537 nM
[56]
  GI50: 388 nM
  TGI: 1220 nM
[44]
  GI50: 370 nM
  TGI: 798 nM
[46]
  GI50: 300 nM
  TGI: 785 nM
[57]
  GI50: 388 nM
  TGI: 932 nM
[48]
  GI50: 611 nM
  TGI: > 16700 nM
[49]
  GI50: 281 nM
  TGI: 554 nM
[50]
  GI50: 353 nM
  TGI: 1530 nM

— PubChem BioAssay (NCI)
